Tested on: Metabolism protein genes
Experiment: DNA chip mRNA expression in yeast, metabolism protein genes (Table 7)
Format: cell-based, Saccharomyces cerevisiae S288C
In short: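 S. cerevisiae S288C grown at 25° C. in YPD to log phase, then exposed 2 h to a toxicant at a growth-inhibiting, non-lethal concentration; untreated cells as control. Poly(A) mRNA reverse-transcribed with Cy3-dUTP or Cy5-dUTP, hybridized >12 h at 65° C. to whole-genome yeast DNA chip; value = fluorescence ratio treated/untreated.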

With `C[S+](C)[O-]` [(15), dimethylsulfoxide] the “The level of expressed mRNA in the presence of chemical substance/The level of expressed mRNA in the absence of chemical substance” value (yeast gene YJL099W) was 1.4, the “level of expressed mRNA in the presence/in the absence of chemical substance” value (yeast gene YJL121C) was 1.0 and the “level of expressed mRNA in the presence/in the absence of chemical substance” value (yeast gene YJL167W) was 1.6. The “The level of expressed mRNA in the presence of chemical substance/The level of expressed mRNA in the absence of chemical substance” value (yeast gene YJL172W) was 1.2, the “level of expressed mRNA in the presence/in the absence of chemical substance” value (yeast gene YJL216C) was 1.2 and the “level of expressed mRNA in the presence/in the absence of chemical substance” value (yeast gene YJR077C) was 1.5. For the same molecule, the “The level of expressed mRNA in the presence of chemical substance/The level of expressed mRNA in the absence of chemical substance” value (yeast gene YJR137C) was 1.0, the “level of expressed mRNA in the presence/in the absence of chemical substance” value (yeast gene YJR143C) was 1.1 and the “The level of expressed mRNA in the presence of chemical substance/The level of expressed mRNA in the absence of chemical substance” value (yeast gene YKL035W) was 1.0. The “level of expressed mRNA in the presence/in the absence of chemical substance” value (yeast gene YKL060C) was 1.6, the “The level of expressed mRNA in the presence of chemical substance/The level of expressed mRNA in the absence of chemical substance” value (yeast gene YKL091C) was 1.1 and the “The level of expressed mRNA in the presence of chemical substance/The level of expressed mRNA in the absence of chemical substance” value (yeast gene YKL104C) was 3.3. For the same molecule, the “level of expressed mRNA in the presence/in the absence of chemical substance” value (yeast gene YKL148C) was 0.6, the “The level of expressed mRNA in the presence of chemical substance/The level of expressed mRNA in the absence of chemical substance” value (yeast gene YKL152C) was 1.8 and the “level of expressed mRNA in the presence/in the absence of chemical substance” value (yeast gene YKL157W) was 1.2. The “The level of expressed mRNA in the presence of chemical substance/The level of expressed mRNA in the absence of chemical substance” value (yeast gene YKL213C) was 1.1, the “The level of expressed mRNA in the presence of chemical substance/The level of expressed mRNA in the absence of chemical substance” value (yeast gene YKL215C) was 0.9 and the “level of expressed mRNA in the presence/in the absence of chemical substance” value (yeast gene YKR034W) was 1.7. The “level of expressed mRNA in the presence/in the absence of chemical substance” value (yeast gene YLR006C) was 0.9, the “level of expressed mRNA in the presence/in the absence of chemical substance” value (yeast gene YLR044C) was 2.2 and the “level of expressed mRNA in the presence/in the absence of chemical substance” value (yeast gene YLR056W) was 0.9. The “level of expressed mRNA in the presence/in the absence of chemical substance” value (yeast gene YLR058C) was 1.5, the “level of expressed mRNA in the presence/in the absence of chemical substance” value (yeast gene YLR081W) was 0.7 and the “level of expressed mRNA in the presence/in the absence of chemical substance” value (yeast gene YLR089C) was 1.7. The “The level of expressed mRNA in the presence of chemical substance/The level of expressed mRNA in the absence of chemical substance” value (yeast gene YLR180W) was 2.5, the “level of expressed mRNA in the presence/in the absence of chemical substance” value (yeast gene YLR284C) was 1.0 and the “The level of expressed mRNA in the presence of chemical substance/The level of expressed mRNA in the absence of chemical substance” value (yeast gene YLR299W) was 1.5. The “The level of expressed mRNA in the presence of chemical substance/The level of expressed mRNA in the absence of chemical substance” value (yeast gene YLR300W) was 2.7, the “level of expressed mRNA in the presence/in the absence of chemical substance” value (yeast gene YLR304C) was 1.6 and the “The level of expressed mRNA in the presence of chemical substance/The level of expressed mRNA in the absence of chemical substance” value (yeast gene YLR307W) was 3.9. The “The level of expressed mRNA in the presence of chemical substance/The level of expressed mRNA in the absence of chemical substance” value (yeast gene YLR348C) was 2.4, the “level of expressed mRNA in the presence/in the absence of chemical substance” value (yeast gene YLR354C) was 2.4 and the “level of expressed mRNA in the presence/in the absence of chemical substance” value (yeast gene YLR372W) was 0.7. For the same molecule, the “level of expressed mRNA in the presence/in the absence of chemical substance” value (yeast gene YML022W) was 0.6, the “The level of expressed mRNA in the presence of chemical substance/The level of expressed mRNA in the absence of chemical substance” value (yeast gene YML054C) was 1.1 and the “The level of expressed mRNA in the presence of chemical substance/The level of expressed mRNA in the absence of chemical substance” value (yeast gene YML070W) was 0.9. The “level of expressed mRNA in the presence/in the absence of chemical substance” value (yeast gene YMR011W) was 0.6, the “level of expressed mRNA in the presence/in the absence of chemical substance” value (yeast gene YMR015C) was 1.2 and the “level of expressed mRNA in the presence/in the absence of chemical substance” value (yeast gene YMR083W) was 1.3. For the same molecule, the “The level of expressed mRNA in the presence of chemical substance/The level of expressed mRNA in the absence of chemical substance” value (yeast gene YMR105C) was 0.9, the “The level of expressed mRNA in the presence of chemical substance/The level of expressed mRNA in the absence of chemical substance” value (yeast gene YMR189W) was 5.6 and the “level of expressed mRNA in the presence/in the absence of chemical substance” value (yeast gene YMR205C) was 0.9. For the same molecule, the “level of expressed mRNA in the presence/in the absence of chemical substance” value (yeast gene YMR261C) was 0.8, the “The level of expressed mRNA in the presence of chemical substance/The level of expressed mRNA in the absence of chemical substance” value (yeast gene YMR271C) was 0.6 and the “The level of expressed mRNA in the presence of chemical substance/The level of expressed mRNA in the absence of chemical substance” value (yeast gene YMR296C) was 6.7. For the same molecule, the “level of expressed mRNA in the presence/in the absence of chemical substance” value (yeast gene YMR323W) was 37.3, the “The level of expressed mRNA in the presence of chemical substance/The level of expressed mRNA in the absence of chemical substance” value (yeast gene YNL012W) was 1.6 and the “level of expressed mRNA in the presence/in the absence of chemical substance” value (yeast gene YNL025C) was 1.4. The “The level of expressed mRNA in the presence of chemical substance/The level of expressed mRNA in the absence of chemical substance” value (yeast gene YNL037C) was 0.9, the “The level of expressed mRNA in the presence of chemical substance/The level of expressed mRNA in the absence of chemical substance” value (yeast gene YNL045W) was 0.8 and the “The level of expressed mRNA in the presence of chemical substance/The level of expressed mRNA in the absence of chemical substance” value (yeast gene YNL104C) was 2.5. The “The level of expressed mRNA in the presence of chemical substance/The level of expressed mRNA in the absence of chemical substance” value (yeast gene YNL106C) was 3.3, the “level of expressed mRNA in the presence/in the absence of chemical substance” value (yeast gene YNL192W) was 2.1 and the “The level of expressed mRNA in the presence of chemical substance/The level of expressed mRNA in the absence of chemical substance” value (yeast gene YNL231C) was 0.9. For the same molecule, the “The level of expressed mRNA in the presence of chemical substance/The level of expressed mRNA in the absence of chemical substance” value (yeast gene YNL331C) was 2.3, the “The level of expressed mRNA in the presence of chemical substance/The level of expressed mRNA in the absence of chemical substance” value (yeast gene YNL332W) was 5.4 and the “The level of expressed mRNA in the presence of chemical substance/The level of expressed mRNA in the absence of chemical substance” value (yeast gene YNR002C) was 1.0. For the same molecule, the “The level of expressed mRNA in the presence of chemical substance/The level of expressed mRNA in the absence of chemical substance” value (yeast gene YNR019W) was 1.6, the “The level of expressed mRNA in the presence of chemical substance/The level of expressed mRNA in the absence of chemical substance” value (yeast gene YNR033W) was 1.3 and the “The level of expressed mRNA in the presence of chemical substance/The level of expressed mRNA in the absence of chemical substance” value (yeast gene YNR059W) was 1.0. The “The level of expressed mRNA in the presence of chemical substance/The level of expressed mRNA in the absence of chemical substance” value (yeast gene YOL058W) was 2.7, the “level of expressed mRNA in the presence/in the absence of chemical substance” value (yeast gene YOL086C) was 1.6 and the “level of expressed mRNA in the presence/in the absence of chemical substance” value (yeast gene YOL108C) was 1.5. The “level of expressed mRNA in the presence/in the absence of chemical substance” value (yeast gene YOL116W) was 0.7, the “The level of expressed mRNA in the presence of chemical substance/The level of expressed mRNA in the absence of chemical substance” value (yeast gene YOL126C) was 1.4 and the “The level of expressed mRNA in the presence of chemical substance/The level of expressed mRNA in the absence of chemical substance” value (yeast gene YOL143C) was 1.0. For the same molecule, the “The level of expressed mRNA in the presence of chemical substance/The level of expressed mRNA in the absence of chemical substance” value (yeast gene YOL153C) was 1.2, the “level of expressed mRNA in the presence/in the absence of chemical substance” value (yeast gene YOL156W) was 1.9 and the “level of expressed mRNA in the presence/in the absence of chemical substance” value (yeast gene YOR002W) was 1.5. For the same molecule, the “level of expressed mRNA in the presence/in the absence of chemical substance” value (yeast gene YOR085W) was 1.8, the “level of expressed mRNA in the presence/in the absence of chemical substance” value (yeast gene YOR103C) was 1.4 and the “level of expressed mRNA in the presence/in the absence of chemical substance” value (yeast gene YOR108W) was 0.7. For the same molecule, the “level of expressed mRNA in the presence/in the absence of chemical substance” value (yeast gene YOR128C) was 1.6, the “The level of expressed mRNA in the presence of chemical substance/The level of expressed mRNA in the absence of chemical substance” value (yeast gene YOR130C) was 1.0 and the “The level of expressed mRNA in the presence of chemical substance/The level of expressed mRNA in the absence of chemical substance” value (yeast gene YOR136W) was 1.2. The “level of expressed mRNA in the presence/in the absence of chemical substance” value (yeast gene YOR142W) was 1.1, the “level of expressed mRNA in the presence/in the absence of chemical substance” value (yeast gene YOR176W) was 0.8 and the “level of expressed mRNA in the presence/in the absence of chemical substance” value (yeast gene YOR178C) was 1.1. The “level of expressed mRNA in the presence/in the absence of chemical substance” value (yeast gene YOR251C) was 0.6, the “The level of expressed mRNA in the presence of chemical substance/The level of expressed mRNA in the absence of chemical substance” value (yeast gene YOR336W) was 0.6 and the “level of expressed mRNA in the presence/in the absence of chemical substance” value (yeast gene YOR348C) was 1.6. For the same molecule, the “The level of expressed mRNA in the presence of chemical substance/The level of expressed mRNA in the absence of chemical substance” value (yeast gene YPL017C) was 1.0, the “level of expressed mRNA in the presence/in the absence of chemical substance” value (yeast gene YPL028W) was 0.6 and the “level of expressed mRNA in the presence/in the absence of chemical substance” value (yeast gene YPL057C) was 1.1. The “level of expressed mRNA in the presence/in the absence of chemical substance” value (yeast gene YPL135W) was 1.5, the “level of expressed mRNA in the presence/in the absence of chemical substance” value (yeast gene YPL148C) was 0.6 and the “level of expressed mRNA in the presence/in the absence of chemical substance” value (yeast gene YPR113W) was 1.0. The “level of expressed mRNA in the presence/in the absence of chemical substance” value (yeast gene YPR165W) was 0.9, the “The level of expressed mRNA in the presence of chemical substance/The level of expressed mRNA in the absence of chemical substance” value (yeast gene YPR167C) was 0.9 and the “level of expressed mRNA in the presence/in the absence of chemical substance” value (yeast gene YPR183W) was 0.9.
